Assay results from DBAASP.
In brackets after ≈: the same amount, converted by molar mass.

Assays:
Experiment in all cases: ≥ marks a high value that may be exact or a test limit, other limits are often not marked, values filed in µg/mL are converted to µM
Bacillus cereus = tested on: Bacillus cereus
Escherichia coli = tested on: Escherichia coli
Staphylococcus aureus = tested on: Staphylococcus aureus

| SMILES | MIC (Bacillus cereus) | MIC (Escherichia coli) | MIC (Staphylococcus aureus) |
| --- | --- | --- | --- |
| CC(C)C[C@H](NC(=O)[C@@H](N)Cc1ccccc1)C(=O)NCC(=O)N[C@@H](CCCCN)C(=O)N[C@H](C(=O)N[C@@H](Cc1ccccc1)C(=O)N[C@@H](CCCCN)C(=O)N[C@@H](CCCCN)C(=O)N[C@@H](C)C(=O)N[C@@H](CO)C(=O)N[C@@H](CCCCN)C(=O)N[C@H](C(=O)N[C@H](C(=O)N1CCC[C@H]1C(=O)N[C@@H](C)C(=O)N[C@H](C(=O)N[C@@H](Cc1ccccc1)C(=O)NCC(=O)N[C@@H](CCCCN)C(=O)N[C@H](C(=O)O)C(C)C)C(C)C)C(C)C)C(C)C)C(C)C [FLGKVFKKASKVVPAVFGKV] | ≥ 119 µM | 119 µM (≈ 256 µg/mL) | > 119 µM |
| CC(C)C[C@H](NC(=O)[C@@H](N)Cc1ccccc1)C(=O)NCC(=O)N[C@@H](CCCCN)C(=O)N[C@H](C(=O)N[C@H](C(=O)N[C@@H](CCCCN)C(=O)NCC(=O)N[C@@H](C)C(=O)N[C@@H](CO)C(=O)N[C@@H](CCCCN)C(=O)N[C@H](C(=O)N[C@@H](Cc1ccccc1)C(=O)N1CCC[C@H]1C(=O)N[C@@H](C)C(=O)N[C@H](C(=O)N[C@@H](Cc1ccccc1)C(=O)NCC(=O)N[C@@H](CCCCN)C(=O)N[C@H](C(=O)O)C(C)C)C(C)C)C(C)C)C(C)C)C(C)C [FLGKVVKGASKVFPAVFGKV] | ≥ 123 µM | > 123 µM | > 123 µM |
| CC(C)C[C@H](NC(=O)[C@@H](N)Cc1ccccc1)C(=O)NCC(=O)N[C@H](C(=O)N[C@H](C(=O)N[C@@H](Cc1ccccc1)C(=O)N[C@@H](CCCCN)C(=O)N[C@@H](CO)C(=O)N[C@@H](C)C(=O)N[C@@H](CO)C(=O)N[C@@H](CCCCN)C(=O)N[C@H](C(=O)N[C@@H](Cc1ccccc1)C(=O)N1CCC[C@H]1C(=O)N[C@@H](C)C(=O)N[C@H](C(=O)N[C@@H](Cc1ccccc1)C(=O)NCC(=O)N[C@@H](CCCCN)C(=O)N[C@H](C(=O)O)C(C)C)C(C)C)C(C)C)C(C)C)C(C)C [FLGVVFKSASKVFPAVFGKV] | ≥ 120 µM | > 120 µM | > 120 µM |
| CC[C@H](C)[C@H](NC(=O)[C@H](CCCCN)NC(=O)[C@H](Cc1ccccc1)NC(=O)[C@@H](NC(=O)[C@@H](NC(=O)[C@@H]1CCCN1C(=O)[C@@H](N)CC(C)C)C(C)C)C(C)C)C(=O)N[C@@H](C)C(=O)N[C@@H](CO)C(=O)N[C@@H](CCCCN)C(=O)N[C@H](C(=O)N[C@H](C(=O)N1CCC[C@H]1C(=O)N[C@@H](CO)C(=O)N[C@H](C(=O)N[C@H](C(=O)N[C@@H](CO)C(=O)N[C@@H](CCCCN)C(=O)N[C@H](C(=O)N[C@H](C(=O)O)[C@@H](C)O)[C@@H](C)CC)[C@@H](C)CC)C(C)C)C(C)C)C(C)C [LPVVFKIASKVVPSVISKIT] | ≥ 120 µM | > 120 µM | – |
| CC[C@H](C)[C@H](NC(=O)[C@H](Cc1ccccc1)NC(=O)[C@H](CCCCN)NC(=O)[C@H](C)NC(=O)[C@@H](NC(=O)[C@H](CO)NC(=O)[C@H](CCCCN)NC(=O)[C@@H](N)CCSC)[C@@H](C)CC)C(=O)N[C@@H](C)C(=O)N[C@@H](CCCCN)C(=O)N[C@H](C(=O)N[C@H](C(=O)N[C@@H](C)C(=O)N[C@@H](CCCCN)C(=O)N[C@@H](CCC(N)=O)C(=O)NCC(=O)N[C@@H](C)C(=O)N[C@@H](CCCCN)C(=O)N[C@@H](CCC(N)=O)C(=O)NCC(=O)O)C(C)C)[C@@H](C)O [MKSIAKFIAKTVAKQGAKQG] | ≥ 122 µM | > 122 µM | – |
| CC[C@H](C)[C@H](NC(=O)[C@H](CO)NC(=O)[C@H](CC(C)C)NC(=O)CNC(=O)[C@@H](NC(=O)[C@@H](NC(=O)[C@H](CCCCN)NC(=O)[C@@H]1CCCN1)C(C)C)C(C)C)C(=O)N[C@H](C(=O)N[C@H](C(=O)N[C@H](C(=O)N[C@@H](CCCCN)C(=O)N[C@@H](C)C(=O)N[C@@H](CCCCN)C(=O)N[C@H](C(=O)N[C@@H](CO)C(=O)N[C@@H](CO)C(=O)N[C@@H](C)C(=O)N[C@@H](CC(C)C)C(=O)NCC(=O)O)C(C)C)C(C)C)C(C)C)C(C)C [PKVVGLSIVVVKAKVSSALG] | ≥ 131 µM | > 131 µM | – |
| CC[C@H](C)[C@H](NC(=O)[C@H](CCCCN)NC(=O)[C@@H](NC(=O)[C@H](C)NC(=O)[C@@H](NC(=O)[C@H](CC(C)C)NC(=O)[C@H](CCCCN)NC(=O)[C@H](C)NC(=O)[C@@H](NC(=O)[C@@H](NC(=O)CNC(=O)[C@@H](NC(=O)[C@H](CC(C)C)NC(=O)[C@@H](N)[C@@H](C)O)C(C)C)C(C)C)C(C)C)C(C)C)[C@@H](C)O)C(=O)NCC(=O)N[C@@H](CO)C(=O)N[C@@H](CO)C(=O)N1CCC[C@H]1C(=O)N[C@@H](CCCN=C(N)N)C(=O)N[C@@H](C)C(=O)O [TLVGVVAKLVATKIGSSPRA] | ≥ 130 µM | > 130 µM | – |

Now from value to compound:

| MIC (Bacillus cereus) | MIC (Escherichia coli) | MIC (Staphylococcus aureus) | SMILES |
| --- | --- | --- | --- |
| 7.33 µM (≈ 16 µg/mL) | 7.33 µM (≈ 16 µg/mL) | 14.7 µM (≈ 32 µg/mL) | CC(C)C[C@H](NC(=O)[C@H](CCCCN)NC(=O)[C@H](Cc1ccccc1)NC(=O)[C@@H](NC(=O)[C@H](CCCCN)NC(=O)CNC(=O)[C@H](CC(C)C)NC(=O)[C@@H](N)Cc1ccccc1)C(C)C)C(=O)N[C@@H](C)C(=O)N[C@@H](CO)C(=O)N[C@@H](CCCCN)C(=O)N[C@H](C(=O)N[C@@H](Cc1ccccc1)C(=O)N1CCC[C@H]1C(=O)N[C@@H](C)C(=O)N[C@H](C(=O)N[C@@H](Cc1ccccc1)C(=O)NCC(=O)N[C@@H](CCCCN)C(=O)N[C@H](C(=O)O)C(C)C)C(C)C)C(C)C [FLGKVFKLASKVFPAVFGKV] |
| 14.9 µM (≈ 32 µg/mL) | 29.9 µM (≈ 64 µg/mL) | 29.9 µM (≈ 64 µg/mL) | CC(C)C[C@H](NC(=O)[C@H](CCCCN)NC(=O)[C@H](Cc1ccccc1)NC(=O)[C@@H](NC(=O)[C@H](CO)NC(=O)CNC(=O)[C@H](CC(C)C)NC(=O)[C@@H](N)Cc1ccccc1)C(C)C)C(=O)N[C@@H](C)C(=O)N[C@@H](CO)C(=O)N[C@@H](CCCCN)C(=O)N[C@H](C(=O)N[C@@H](Cc1ccccc1)C(=O)N1CCC[C@H]1C(=O)N[C@@H](C)C(=O)N[C@H](C(=O)N[C@@H](Cc1ccccc1)C(=O)NCC(=O)N[C@@H](CCCCN)C(=O)N[C@H](C(=O)O)C(C)C)C(C)C)C(C)C [FLGSVFKLASKVFPAVFGKV] |
| ≥ 60.1 µM | 30.1 µM (≈ 64 µg/mL) | > 120 µM | CC(C)C[C@H](NC(=O)[C@@H](N)Cc1ccccc1)C(=O)NCC(=O)N[C@H](C(=O)N[C@H](C(=O)N[C@@H](Cc1ccccc1)C(=O)N[C@@H](CCCCN)C(=O)N[C@@H](CCCCN)C(=O)N[C@@H](C)C(=O)N[C@@H](CO)C(=O)N[C@@H](CCCCN)C(=O)N[C@H](C(=O)N[C@@H](Cc1ccccc1)C(=O)NCC(=O)N[C@@H](C)C(=O)N[C@H](C(=O)N[C@@H](Cc1ccccc1)C(=O)NCC(=O)N[C@@H](CCCCN)C(=O)N[C@H](C(=O)O)C(C)C)C(C)C)C(C)C)C(C)C)C(C)C [FLGVVFKKASKVFGAVFGKV] |
| 3.69 µM (≈ 8 µg/mL) | 29.5 µM (≈ 64 µg/mL) | 3.69 µM (≈ 8 µg/mL) | CC(C)C[C@H](NC(=O)[C@H](CCCCN)NC(=O)[C@H](Cc1ccccc1)NC(=O)[C@@H](NC(=O)[C@@H](NC(=O)CNC(=O)[C@H](CC(C)C)NC(=O)[C@@H](N)Cc1ccccc1)C(C)C)C(C)C)C(=O)N[C@@H](C)C(=O)N[C@@H](CO)C(=O)N[C@@H](CCCCN)C(=O)N[C@H](C(=O)N[C@@H](Cc1ccccc1)C(=O)NCC(=O)N[C@@H](CCCCN)C(=O)N[C@H](C(=O)N[C@@H](Cc1ccccc1)C(=O)NCC(=O)N[C@@H](CCCCN)C(=O)N[C@H](C(=O)O)C(C)C)C(C)C)C(C)C [FLGVVFKLASKVFGKVFGKV] |
